Measured values taken from US20260049072A1, “HETEROCYCLIC COMPOUND FOR INDUCING DEGRADATION OF MUTANT KRAS PROTEIN” (Astellas Pharma Inc., priority 2022, published 2026).
Read-outs that look alike come from different tables or passages of the source.

Test system: phosphorylation of ERK (Thr202/Tyr204)
Test: ERK phosphorylation inhibitory activity, cell ELISA, PA-TU-8902
Assay type: cell-based
Details: Homo sapiens, read-out: IC50 (ERK phosphorylation inhibition)
Description: Test Example 2: Evaluation of ERK Phosphorylation Inhibitory Activity on Human KRAS G12V Mutant-Positive Pancreatic Cancer Line PA-TU-8902
The ERK phosphorylation inhibitory activities of subject compounds were evaluated by measuring phosphorylation of the 202th threonine (Thr202) and the 204th tyrosine (Tyr204) of ERK located downstream of the KRAS signal by cell ELISA.
PA-TU-8902 cells were seeded at 36 µL/well on a 384-well plate (from Greiner bio-one) to give 5.0×10^3 cells per well. The cell culture conditions were the same conditions as in Test Example 1-1.
The next day, the subject compounds (9 points having final concentrations in the range of 3 μM to 0.3 nM), trametinib (MEK inhibitor) of a final concentration of 300 nM as a positive control and DMSO, which was the solvent for the subject compounds, as a negative control were diluted 100-fold with a fresh medium and were each added at 4 μL per well, followed by culturing for 24 hours. After culturing, a 30% glyoxal solution (40% glyoxal [from Nacalai Tesque] was diluted with PBS) was quickly added at 30 μL per well, and the plate was allowed to stand for an hour and 30 minutes at room temperature to thus immobilize the cells. Then, the plate was centrifuged (110×g, seven seconds, hereinafter centrifugation was performed under the same conditions unless otherwise specified) to remove the supernatant, and 0.1% Triton X-100-containing PBS was added at 20 μL per well. After allowing the plate to stand for 10 minutes at room temperature, the supernatant was removed by centrifugation, and the same operation was further repeated. Next, 0.5% SDS-containing PBS was added at 20 μL per well. The plate was allowed to stand at room temperature for 30 minutes and was then centrifuged to remove the supernatant. Subsequently, a blocking solution (Intercept Blocking Buffer) was added at 20 μL per well, and the plate was allowed to stand for an hour at room temperature. The supernatant was removed by centrifugation, and an ERK (Thr202/Tyr204) phosphorylation antibody (Phospho-p44/42 MAPK (Erk 1/2) (Thr202/Tyr204) (D13.14.4E) XP Rabbit mAb; from Cell Signaling Technology) diluted 2,500-fold with the blocking solution was added at 15 μL per well as a primary antibody. The plate was allowed to stand at 4° C. overnight.
The next day, the plate was centrifuged to remove the supernatant, and 0.05% Tween-20-containing PBS (from Thermo Scientific; 20×PBS Tween-20 was diluted 20-fold with ion exchange water and used) was added at 50 μL per well. The supernatant was removed by centrifugation to thus wash each well. The washing was performed three times in total. After washing, an anti-rabbit IgG antibody diluted 1,000-fold with the blocking solution was added at 15 μL per well as a secondary antibody, and the plate was allowed to stand for an hour at room temperature. The plate was centrifuged to remove the supernatant, and each well was washed three times with 0.05% Tween-20-containing PBS in the same manner as after the primary antibody reaction. Centrifugation after the third washing was performed at 171×g for 17 seconds. After removing the supernatant, the plate was dried as it was with air at room temperature for three hours or more, and the 800-nm fluorescent signals were measured with Aerius.
With the signaling value at the time of addition of DMSO taken as 0% inhibition and with the signaling value at the time of addition of 300 nM trametinib taken as 100% inhibition, the 50% inhibition values (IC50) were calculated by Sigmoid-Emax model nonlinear regression analysis.

[1] = PaTu 8902, PA-TU-8902 cells, 24 hours, 100% = 300 nM trametinib

Row | Compound | IC50 [1] | IC50 (PaTu 8902, 24 h)
1 | CO[C@@H](C)COc1nc(N2CCOCC2)c2cc(C3CC3)c(-c3c(C)c(F)cc4[nH]ncc34)c(OCc3ccc(-c4cn([C@H](C(=O)N5C[C@H](O)C[C@H]5C(=O)N[C@@H](CO)c5ccc(-c6scnc6C)cc5)C(C)C)nn4)cc3)c2n1 (atropisomer, axis not shown) [Example 21] | 19 nM | 
2 | CNCCNC(=O)N1CC(Oc2nc(OC[C@H](C)OC)nc3c(OCc4ccc(-c5cn([C@H](C(=O)N6C[C@H](O)C[C@H]6C(=O)N[C@@H](CO)c6ccc(-c7scnc7C)cc6)C(C)C)nn5)cc4)c(-c4c(C)c(F)cc5[nH]ncc45)c(C4CC4)cc23)C1 (atropisomer, axis not shown) [Example 18] | 33 nM | 
3 | CO[C@@H](C)COc1nc(N2CC(C#N)C2)c2cc(C3CC3)c(-c3c(C)c(F)cc4[nH]ncc34)c(OCc3ccc(-c4cn([C@H](C(=O)N5C[C@H](O)C[C@H]5C(=O)N[C@@H](CO)c5ccc(-c6scnc6C)cc5)C(C)C)nn4)cc3)c2n1 (atropisomer, axis not shown) [Example 20] | 34 nM | 
4 | CO[C@@H](C)COc1nc(NC2CN(C(=O)O[C@H]3C[C@@H](N(C)C)C3)C2)c2cc(C3CC3)c(-c3c(C)c(F)cc4[nH]ncc34)c(OCc3ccc(-c4cn([C@H](C(=O)N5C[C@H](O)C[C@H]5C(=O)N[C@@H](CO)c5ccc(N6CCOC6=O)cc5)C(C)C)nn4)cc3)c2n1 (atropisomer, axis not shown) [Example 4] | 48 nM | 
5 | CO[C@@H](C)COc1nc(OC2CN(C(=O)NCCN(C)C)C2)c2cc(C3CC3)c(-c3c(C)c(F)cc4[nH]ncc34)c(OCc3ccc(-c4cn([C@H](C(=O)N5C[C@H](O)C[C@H]5C(=O)N[C@@H](CO)c5ccc(-c6scnc6C)cc5)C(C)C)nn4)cc3)c2n1 (atropisomer, axis not shown) [Example 17] | 23 nM | 
6 | CO[C@@H](C)COc1cc(OC2CN(C(=O)C3CN(C)C3)C2)c2cc(C3CC3)c(-c3c(C)c(F)cc4[nH]ncc34)c(OCc3ccc(-c4cn([C@H](C(=O)N5C[C@H](O)C[C@H]5C(=O)N[C@@H](CO)c5ccc(-n6cncn6)cc5)C(C)C)nn4)cc3)c2n1 (atropisomer, axis not shown) [Example 42] |  | 14 nM
7 | Cc1ncsc1-c1ccc([C@H](CO)NC(=O)[C@@H]2C[C@@H](O)CN2C(=O)[C@H](C(C)C)n2cc(-c3ccc(COc4c(-c5c(C)c(F)cc6[nH]ncc56)c(C5CC5)cc5c(NC6CN(c7ncccn7)C6)nc(OC6CCOCC6)nc45)cc3)nn2)cc1 [Example 15, (4R)-1-[(2S)-2-{4-[4-({[(7M)-6-cyclopropyl-7-(6-fluoro-5-methyl-1H-indazol-4-yl)-2-[(oxan-4-yl)oxy]-4-{[1-(pyrimidin-2-yl)azetidin-3-yl]amino}quinazolin-8-yl]oxy}methyl)phenyl]-1H-1,2,3-triazol-1-yl}-3-methylbutanoyl]-4-hydroxy-N-{(1R)-2-hydroxy-1-[4-(4-methyl-1,3-thiazol-5-yl)phenyl]ethyl}-L-prolinamide] | 42 nM | 

Second part, led by results:

Row | IC50 [1] | Compound | IC50 (PaTu 8902, 24 h)
8 | 15 nM | Cc1ncsc1-c1ccc([C@H](CO)NC(=O)[C@@H]2C[C@@H](O)CN2C(=O)[C@H](C(C)C)n2cc(-c3ccc(COc4c(-c5c(C)c(F)cc6[nH]ncc56)c(C5CC5)cc5c(NCc6cccnc6)nc(OC6CCOCC6)nc45)cc3)nn2)cc1 [Example 29] | 
9 | 10 nM | CO[C@@H](C)COc1cc(OC2CN(C(=O)N3CC(CN(C)C)C3)C2)c2cc(C3CC3)c(-c3c(C)c(F)cc4[nH]ncc34)c(OCc3ccc(-c4cn([C@H](C(=O)N5C[C@H](O)C[C@H]5C(=O)N[C@@H](CO)c5ccc(-c6scnc6C)cc5)C(C)C)nn4)cc3)c2n1 (atropisomer, axis not shown; (M)) [Example 14, (4R)-1-[(2S)-2-(4-{4-[({(7M)-6-cyclopropyl-4-[(1-{3-[(dimethylamino)methyl]azetidine-1-carbonyl}azetidin-3-yl)oxy]-7-(6-fluoro-5-methyl-1H-indazol-4-yl)-2-[(2S)-2-methoxypropoxy]quinolin-8-yl}oxy)methyl]phenyl}-1H-1,2,3-triazol-1-yl)-3-methylbutanoyl]-4-hydroxy-N-{(1R)-2-hydroxy-1-[4-(4-methyl-1,3-thiazol-5-yl)phenyl]ethyl}-L-prolinamide] | 
10 | 11 nM | Cc1ncsc1-c1ccc([C@H](CO)NC(=O)[C@@H]2C[C@@H](O)CN2C(=O)[C@H](C(C)C)n2cc(-c3ccc(COc4c(-c5c(C)c(F)cc6[nH]ncc56)c(C5CC5)cc5c(N6CC[C@H]6C(N)=O)nc(OC6CCOCC6)nc45)cc3)nn2)cc1 [Example 35] | 
11 | 12 nM | COC(C)(C)COc1cc(OC2CN(C(=O)N3CC(CN(C)C)C3)C2)c2cc(C3CC3)c(-c3c(C)c(F)cc4[nH]ncc34)c(OCc3ccc(-c4cn([C@H](C(=O)N5C[C@H](O)C[C@H]5C(=O)N[C@@H](CO)c5ccc(-n6cncn6)cc5)C(C)C)nn4)cc3)c2n1 (atropisomer, axis not shown) [Example 9] | 
12 | 16 nM | CO[C@@H](C)COc1nc(NC2CN(C(=O)O[C@H]3C[C@@H](N(C)C)C3)C2)c2cc(C3CC3)c(-c3c(C)c(F)cc4[nH]ncc34)c(OCc3ccc(-c4cn([C@H](C(=O)N5C[C@H](O)C[C@H]5C(=O)N[C@@H](CO)c5ccc(-n6cncn6)cc5)C(C)C)nn4)cc3)c2n1 (atropisomer, axis not shown; (M)) [Example 2, (1s,3R)-3-(dimethylamino)cyclobutyl 3-({(7M)-6-cyclopropyl-7-(6-fluoro-5-methyl-1H-indazol-4-yl)-8-{[4-(1-{(2S)-1-[(2S,4R)-4-hydroxy-2({(1R)-2-hydroxy-1-[4-(1H-1,2,4-triazol-1-yl)phenyl]ethyl}carbamoyl)pyrrolidin-1-yl]-3-methyl-1-oxobutan-2-yl}-1H-1,2,3-triazol-4-yl)phenyl]methoxy}-2-[(2S)-2-methoxypropoxy]quinazolin-4-yl}amino)azetidine-1-carboxylate] | 
13 | 13 nM | CO[C@@H](C)COc1nc(NC2CN(C(=O)N3CC(CN(C)C)C3)C2)c2cc(C3CC3)c(-c3c(C)c(F)cc4[nH]ncc34)c(OCc3ccc(-c4cn([C@H](C(=O)N5C[C@H](O)C[C@H]5C(=O)N[C@@H](CO)c5ccc(-c6scnc6C)cc5)C(C)C)nn4)cc3)c2n1 (atropisomer, axis not shown) [Example 25] | 
14 | 7 nM | CO[C@@H](C)COc1cc(OC2CN(C(=O)N3CC(CN(C)C)C3)C2)c2cc(C3CC3)c(-c3c(C)c(F)cc4[nH]ncc34)c(OCc3ccc(-c4cn([C@H](C(=O)N5C[C@H](O)C[C@H]5C(=O)N[C@@H](CO)c5ccc(-c6ocnc6C)cc5)C(C)C)nn4)cc3)c2n1 (atropisomer, axis not shown; (M)) [Example 6, (4R)-1-[(2S)-2-(4-{4-[({(7M)-6-cyclopropyl-4-[(1-{3-[(dimethylamino)methyl]azetidine-1-carbonyl}azetidin-3-yl)oxy]-7-(6-fluoro-5-methyl-1H-indazol-4-yl)-2-[(2S)-2-methoxypropoxy]quinolin-8-yl}oxy)methyl]phenyl}-1H-1,2,3-triazol-1-yl)-3-methylbutanoyl]-4-hydroxy-N-{(1R)-2-hydroxy-1-[4-(4-methyl-1,3-oxazol-5-yl)phenyl]ethyl}-L-prolinamide] | 
15 | 15 nM | CO[C@@H](C)COc1nc(NC2CN(C(=S)N3CC(CN(C)C)C3)C2)c2cc(C3CC3)c(-c3c(C)c(F)cc4[nH]ncc34)c(OCc3ccc(-c4cn([C@H](C(=O)N5C[C@H](O)C[C@H]5C(=O)N[C@@H](CO)c5ccc(-n6cncn6)cc5)C(C)C)nn4)cc3)c2n1 (atropisomer, axis not shown) [Example 26] | 
